Biological target: T1, human glycine transporter-2 (GlyT2) (Homo sapiens, UniProt Q9Y345)
T1 construct: The entire coding region of the human GlyT2 cDNA was cloned into the mammalian expression vector pCINeo; expressed in transfected cells; host or cells: Cos-7 cells (African green monkey kidney), stably transfected, vector pCINeo, G418 selection
T1 sequence (Q9Y345 1-797): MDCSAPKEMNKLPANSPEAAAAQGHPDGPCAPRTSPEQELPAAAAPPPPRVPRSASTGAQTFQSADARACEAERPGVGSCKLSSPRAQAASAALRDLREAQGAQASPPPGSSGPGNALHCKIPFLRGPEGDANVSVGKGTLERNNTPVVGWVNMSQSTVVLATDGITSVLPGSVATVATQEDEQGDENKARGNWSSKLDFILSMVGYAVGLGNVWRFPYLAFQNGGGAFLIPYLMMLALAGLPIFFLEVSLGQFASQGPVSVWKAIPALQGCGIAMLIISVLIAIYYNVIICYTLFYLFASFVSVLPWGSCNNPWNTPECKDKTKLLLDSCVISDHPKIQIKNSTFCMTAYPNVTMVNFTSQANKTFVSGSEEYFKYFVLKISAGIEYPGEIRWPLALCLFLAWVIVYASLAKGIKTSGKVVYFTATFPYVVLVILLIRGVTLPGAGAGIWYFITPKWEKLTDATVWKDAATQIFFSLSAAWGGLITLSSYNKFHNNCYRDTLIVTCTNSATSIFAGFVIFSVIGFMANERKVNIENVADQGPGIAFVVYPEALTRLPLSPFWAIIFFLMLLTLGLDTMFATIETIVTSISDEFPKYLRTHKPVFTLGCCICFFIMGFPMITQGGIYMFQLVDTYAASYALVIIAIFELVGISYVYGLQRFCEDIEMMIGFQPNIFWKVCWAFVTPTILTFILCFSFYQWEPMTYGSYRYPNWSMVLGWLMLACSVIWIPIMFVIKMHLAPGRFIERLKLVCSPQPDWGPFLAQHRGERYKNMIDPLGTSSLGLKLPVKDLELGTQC
Assay: GlyT2 inhibitory activity: inhibition of [14C]-glycine uptake in COS-7 cells transfected with human GlyT2
Assay type: cell-based
Conditions: Cos-7 cells stably transfected with human GlyT2; 20 μM 14C-glycine, 2 h at 37° C.
Method: GlyT2 antagonist activity of representative compounds of the invention was determined in accordance with the assay described in the Examples and by measuring the ability of compounds to inhibit the uptake of [^14C]-glycine in COS-7 cells transfected with the human glycine transporter-2 (GlyT2). The GlyT2 antagonist activities of these representative compounds are set forth hereinafter in Table 1.
Cos-7 cells (African green monkey, kidney) from American Type Culture Collection were grown in DMEM supplemented with 10% fetal bovine serum. The entire coding region of the human GlyT2 cDNA was cloned into the mammalian expression vector pCINeo, and then stably transfected into Cos-7 cells. Transfection was performed essentially as described by T. W. Lovenberg et al. (Mol. Pharmacol. 1999, 55:1101-1107). Cells are grown to 70-80% confluence, removed from the plate with trypsin, and pelleted in a clinical centrifuge. The pellet is resuspended in 400 μL complete medium and transferred to an electroporation cuvette with a 0.4 cm gap between the electrodes (Bio-Rad, 165-2088). One microgram of supercoiled GlyT2 cDNA is added to the cells, and the suspension is mixed. The voltage for the electroporation is set at 0.25 kV, and the capacitance is set at 960 μF. After electroporation, the cuvette contents are diluted to 10 mL with complete medium, and 0.5 mL, 1.0 mL, 2.0 mL and remainder (−6.5 mL) portions are plated onto four 10-cm dishes. The cells are incubated 24 h before adding 600 μg/mL G418. Colonies that survive selection are isolated and tested for GlyT2 expression.
The day before the assay, the GlyT2 expressing cells were plated into 96-well scintillating microplates (Amersham, RPNQ 0160) at a density of approximately 20,000 cells per well. Cells were grown overnight at 37° C. in 5% CO2 and then washed once with 37° C. HEPES buffered saline (HBS: 150 mM NaCl, 20 mM HEPES, 1 mM CaCl2, 10 mM glucose, 5 mM KCl, 1 mM MgCl2; pH 7.4). Eighty microliters of 37° C. HBS was subsequently added to each well. Test solutions of GlyT2 inhibitors were prepared in HBS from DMSO stock solutions, and 5 μL of test solution was added to each test well. Total transport and non-specific background were determined by adding 5 μL HBS or 5 μL 2 M glycine, respectively, to the appropriate control wells. Plates were then left at room temperature for 5 min before the addition of 20 μL of 100 μM ^14C-glycine (NEN, NEC 048H) to each well for a final concentration of 20 μM. Plates were incubated for 2 h at 37° C. with 5% CO2. After 2 h the reaction mixtures were removed by aspiration, and the plates were washed once with ice-cold HBS. Plates were sealed with TopSeal (Packard, 6005185) and counted on a Packard TopCount® scintillation counter.

| IC50 | SMILES |
| --- | --- |
| 1200 nM | O=C(c1cccc(CNCCNc2ccccc2Cl)c1)N1CCCCC1 [Example 19, (3-{[2-(2-Chloro-phenylamino)-ethylamino]-methyl}-phenyl)-piperidin-1-yl-methanone] |
| 550 nM | CC(C)Nc1ccccc1NCCNCc1cccc(C(=O)N2CCCCC2)c1 [Example 13, (3-{[2-(2-Isopropylamino-phenylamino)-ethylamino]-methyl}-phenyl)-piperidin-1-yl-methanone] |
| 3100 nM | O=C(c1cccc(CNCCNc2cccc(Cl)c2)c1)N1CCCCC1 [Example 20, (3-{[2-(3-Chloro-phenylamino)-ethylamino]-methyl}-phenyl)-piperidin-1-yl-methanone] |
| 800 nM | COc1cccc(NCCNCc2cccc(C(=O)N3CCCCC3)c2)c1 [Example 9, (3-{[2-(3-Methoxy-phenylamino)-ethylamino]-methyl}-phenyl)-piperidin-1-yl-methanone] |
| 11000 nM | CC(C)Oc1ccccc1NCCN(C)Cc1cccc(C(=O)N2CCCCC2)c1 [Example 27, [3-({[2-(2-Isopropoxy-phenylamino)-ethyl]-methyl-amino}-methyl)-phenyl]-piperidinyl-methanone] |
| 2500 nM | CC(C)c1ccccc1NCCNCc1cccc(C(=O)N2CCCCC2)c1 [Example 21, (3-{[2-(2-Isopropyl-phenylamino)-ethylamino]-methyl}-phenyl)-piperidin-1-yl-methanone] |
| 4000 nM | CC(C)Oc1ccccc1NCCCNCc1cccc(C(=O)N2CCCCC2)c1 [Example 2, (3-{[3-(2-Isopropoxy-phenylamino)-propylamino]-methyl}-phenyl)-piperidin-1-yl-methanone] |
| 20000 nM | O=C(c1cccc(CNCCNc2ccccc2O)c1)N1CCCCC1 [Example 4, (3-{[2-(2-Hydroxy-phenylamino)-ethylamino]-methyl}-phenyl)-piperidin-1-yl-methanone] |
| 1000 nM | CC(C)Oc1cccc(NCCN(C)Cc2cccc(C(=O)N3CCCCC3)c2)c1 [Example 30, [3-({[2-(3-Isopropoxy-phenylamino)-ethyl]-methyl-amino}-methyl)-phenyl]-piperidin-1-yl-methanone] |
| 2500 nM | COc1ccccc1NCCNCc1cccc(C(=O)N2CCCCC2)c1 [Example 5, (3-{[2-(2-Methoxy-phenylamino)-ethylamino]-methyl}-phenyl)-piperidin-1-yl-methanone] |

Source: patent publication US7915420B2, “Aryl piperidine amides” (Janssen Pharmaceutica NV, priority 2003, dated 2011)
